Source: patent US20190077774A1, “PEROXISOME PROLIFERATOR-ACTIVATED RECEPTOR AGONISTS” (City of Hope, priority 2017, published 2019)
Entries after “also recorded” stand apart in the source; their conditions may differ.

Experiments:
mouse PPARα = molecular target: T1, mouse PPARα (Mus musculus, UniProt P23204); test: PPAR-GAL4 transactivation assay in transiently transfected CV-1 cells; format: cell-based; settings: PPAR-GAL4 chimeric receptor, read-out: EC50(nM) mPPARα
T1 construct: expressed in transfected cells; host or cells: CV-1 (monkey kidney) cells, transient transfection
T1 sequence (P23204 159-468): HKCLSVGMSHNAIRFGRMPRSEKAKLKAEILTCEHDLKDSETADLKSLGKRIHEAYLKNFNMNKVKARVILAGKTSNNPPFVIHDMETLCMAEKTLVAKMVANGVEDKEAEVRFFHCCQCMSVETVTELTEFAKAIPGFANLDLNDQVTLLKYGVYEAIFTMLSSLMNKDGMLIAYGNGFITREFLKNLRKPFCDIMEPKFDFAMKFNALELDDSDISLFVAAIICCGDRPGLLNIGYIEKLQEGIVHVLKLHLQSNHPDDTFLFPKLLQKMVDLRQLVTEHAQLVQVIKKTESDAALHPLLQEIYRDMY
Experimental: To assess the functional transcriptional activity of these compounds, cell-based assays using chimeric receptor Gal4 DNA-binding domain (DBD)-NR ligand binding domain cotransfection assay (LBDs of PPARα, PPARγ, and PPARδ) were performed. As an initial screen to determine the PPARα activity and selectivity, all compounds were evaluated for in vitro potency and selectivity by transfection testing, using CV-1 cells transfected with human and mouse PPARs. MH100×4 is a luciferase reporter with four copies of a GAL4 UASG response element, where GAL-I refers to the ligand-binding domain of the indicated receptor fused to the C-terminus of the GAL4 DNA-binding domain. Assays were performed using a Biomek automated workstation in which the genes for the nuclear receptor, as well as a plasmid containing a response element upstream of a luciferase cDNA, are transfected into CV-1 cells. Compounds were evaluated for their ability to activate human and mouse PPARs at […] test concentrations. […] The transactivation activity of the series of compounds (DY121-132, 10a-g) toward PPARα was expressed as EC50, which is the concentration of the test compound that affords half-maximum activity, as summarized in Table 1.
In vitro binding and transfection studies. As an initial screen to determine the PPARα, PPARγ, and PPARδ activity, all compounds were evaluated for in vitro potency and selectivity by transfection testing, using CV-1 cells transfected with human and mouse PPARs. MH100×4 is a luciferase reporter with four copies of a GAL4 USAG response element, where GAL-I refers to the ligand-binding domain of the indicated receptor fused to the C-terminus of the GAL4 DNA-binding domain. Assays were performed using a Biomek automated workstation in which the gene for the nuclear receptor, as well as a plasmid containing a response element upstream of a luciferase cDNA, are transfected into CV-1 cells. Compounds were evaluated for their ability to activate human PPARs at 1, 2.5, 3, and 5 uM test concentrations.
Compounds were screened for agonist activity towards PPAR-GAL4 chimeric receptors in transiently transfected CV-1 cells as described. EC50 is the concentration of test compound that gave 50% maximum efficacy.

C57Bl/6J female mice = test: Serum triglyceride and lipid effects in C57Bl/6J female mice; format: in vivo
Experimental: FIG. 5. Ligand Screening Results: DY series compounds and controls administered once to C57Bl/6J female mice at 8 weeks of age. Mice were treated at 3 mg/kg for all compounds except WY14643 (100 mg/kg). Compounds gavaged at 0900; mice sacrificed 24 h later. Ordered by degree of effect on triglyceride lowering. According to our screening test, DY series compounds reduce triglycerides.
(§1) Next, we would like to investigate the therapeutic potential of DY121 to see if it could be candidate for treating NAFLD/NASH. Note that the pathogenesis of NASH has not yet been fully elucidated so far; however, the ‘two-hit’ theory is widely accepted. The first hit is the accumulation of fatty acids in the liver to cause steatosis. […] The newly produced PPARα agonist DY121 and its analogs, as well as WY100=WY14643 and GW3 (GW7647), were evaluated in C57Bl/6J female mice for their ability to alter serum triglyceride, liver gene expression, and glucose. Fibric acid derivatives (100 mg/kg/day) was used as a control, WY100 (WY14, 643, 100 mg/kg/day), GW3 (GW7647-positive control, 3 mg/kg/day), DY121 (˜3 mg/kg/day), respectively. DY series compounds and controls administered once to C57Bl/6J female mice at 8 weeks of age. Mice were treated at 3 mg/kg for all compounds except WY14643 (100 mg/kg).

[1] = Body weight and food intake of treated mice; format: in vivo
Experimental: as §1

- EC50 (mouse PPARα): 3 nM
Compound: COc1ccc(Cn2c(CCCc3ccc(OC(C)(C)C(=O)O)cc3)nn(Cc3ccc(C)cc3)c2=O)cc1 [10a, 2-(4-{3-[4-(4-Methoxy-benzyl)-1-(4-methyl-benzyl)-5-oxo-4,5-dihydro-1H[1,2,4]triazol-3-yl]-propyl}-phenoxy)-2-methyl-propionic acid]
- hepatic TG accumulation (C57Bl/6J female mice; 3 mg/kg DY121, WY14643 100 mg/kg): suppressed; also recorded: more apparent
- serum triglyceride (TG) concentrations (C57Bl/6J female mice; DY121-treated mice vs control): significantly decreased
- body weight ([1]; 24 h vs 72 h (FIG. 8)): unaffected
- body weights and food intake ([1]; vs control group): no significant differences
